Test results: PubChem BioAssay (NCI)
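Dose response: 5 concentrations. Exposure: 48 h. Format: 96-well plates. Endpoint: linear interpolation; highest concentration if not reached. TGI is the concentration that stops growth completely.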

Assays:
Assay in all cases: NCI tumour cell line growth inhibition, 48 h
LXFL 529 NSCLC = test system: LXFL 529 NSCLC
LOX IMVI melanoma = test system: LOX IMVI melanoma
A549 NSCLC = test system: A549 NSCLC
KM20L2 colon = test system: KM20L2 colon
OVCAR-5 ovarian = test system: OVCAR-5 ovarian
HOP-92 NSCLC = test system: HOP-92 NSCLC
SF-539 CNS = test system: SF-539 CNS
M19-MEL melanoma = test system: M19-MEL melanoma
NCI-H522 lung = test system: NCI-H522 lung
SF-268 CNS = test system: SF-268 CNS
SN12C renal = test system: SN12C renal
DMS 273 small cell lung = test system: DMS 273 small cell lung
RPMI-8226 leukemia = test system: RPMI-8226 leukemia
HCT-116 colon = test system: HCT-116 colon
UO-31 renal = test system: UO-31 renal
A498 renal = test system: A498 renal
SNB-19 CNS = test system: SNB-19 CNS
HOP-62 NSCLC = test system: HOP-62 NSCLC
OVCAR-3 ovarian = test system: OVCAR-3 ovarian
SK-OV-3 ovarian = test system: SK-OV-3 ovarian
HCT-15 colon = test system: HCT-15 colon
SK-MEL-28 melanoma = test system: SK-MEL-28 melanoma
EKVX NSCLC = test system: EKVX NSCLC
NCI-H23 lung = test system: NCI-H23 lung
SK-MEL-2 melanoma = test system: SK-MEL-2 melanoma
DMS 114 small cell lung = test system: DMS 114 small cell lung
CAKI-1 renal = test system: CAKI-1 renal
IGROV1 ovarian = test system: IGROV1 ovarian
786-0 renal = test system: 786-0 renal
XF 498 CNS = test system: XF 498 CNS
SF-295 CNS = test system: SF-295 CNS
NCI-H460 lung = test system: NCI-H460 lung
SNB-78 CNS = test system: SNB-78 CNS
SNB-75 CNS = test system: SNB-75 CNS
OVCAR-8 ovarian = test system: OVCAR-8 ovarian
OVCAR-4 ovarian = test system: OVCAR-4 ovarian
SK-MEL-5 melanoma = test system: SK-MEL-5 melanoma
HL-60(TB) leukemia = test system: HL-60(TB) leukemia
SW-620 colon = test system: SW-620 colon
KM12 colon = test system: KM12 colon
DLD-1 colon = test system: DLD-1 colon
UACC-257 melanoma = test system: UACC-257 melanoma
SR leukemia = test system: SR leukemia
TK-10 renal = test system: TK-10 renal
M14 melanoma = test system: M14 melanoma
U251 CNS = test system: U251 CNS
COLO 205 colon = test system: COLO 205 colon
NCI-H226 lung = test system: NCI-H226 lung
ACHN renal = test system: ACHN renal
UACC-62 melanoma = test system: UACC-62 melanoma
HT29 colon = test system: HT29 colon
HCC-2998 colon = test system: HCC-2998 colon
MALME-3M melanoma = test system: MALME-3M melanoma
MOLT-4 leukemia = test system: MOLT-4 leukemia
CCRF-CEM leukemia = test system: CCRF-CEM leukemia
K-562 leukemia = test system: K-562 leukemia

Structure (SMILES): O=C(CSc1nc(-c2ccccc2)c(-c2ccccc2)[nH]1)NNC(=S)Nc1ccccc1
- TGI (LXFL 529 NSCLC): > 100 µM
- TGI (LOX IMVI melanoma): > 100 µM
- TGI (A549 NSCLC): > 100 µM
- TGI (KM20L2 colon): > 100 µM
- TGI (OVCAR-5 ovarian): > 100 µM
- TGI (HOP-92 NSCLC): > 100 µM
- TGI (SF-539 CNS): > 100 µM
- TGI (M19-MEL melanoma): > 100 µM
- TGI (NCI-H522 lung): > 100 µM
- TGI (SF-268 CNS): > 100 µM
- TGI (SN12C renal): > 100 µM
- TGI (DMS 273 small cell lung): > 100 µM
- TGI (RPMI-8226 leukemia): > 100 µM
- TGI (HCT-116 colon): > 100 µM
- TGI (UO-31 renal): > 100 µM
- TGI (A498 renal): > 100 µM
- TGI (SNB-19 CNS): > 100 µM
- TGI (HOP-62 NSCLC): > 100 µM
- TGI (OVCAR-3 ovarian): > 100 µM
- TGI (SK-OV-3 ovarian): > 100 µM
- TGI (HCT-15 colon): > 100 µM
- TGI (SK-MEL-28 melanoma): > 100 µM
- TGI (EKVX NSCLC): > 100 µM
- TGI (NCI-H23 lung): > 100 µM
- TGI (SK-MEL-2 melanoma): > 100 µM
- TGI (DMS 114 small cell lung): > 100 µM
- TGI (CAKI-1 renal): > 100 µM
- TGI (IGROV1 ovarian): > 100 µM
- TGI (786-0 renal): > 100 µM
- TGI (XF 498 CNS): > 100 µM
- TGI (SF-295 CNS): > 100 µM
- TGI (NCI-H460 lung): > 100 µM
- TGI (SNB-78 CNS): > 100 µM
- TGI (SNB-75 CNS): > 100 µM
- TGI (OVCAR-8 ovarian): > 100 µM
- TGI (OVCAR-4 ovarian): > 100 µM
- TGI (SK-MEL-5 melanoma): > 100 µM
- TGI (HL-60(TB) leukemia): > 100 µM
- TGI (SW-620 colon): > 100 µM
- TGI (KM12 colon): > 100 µM
- TGI (DLD-1 colon): > 100 µM
- TGI (UACC-257 melanoma): > 100 µM
- TGI (SR leukemia): > 100 µM
- TGI (TK-10 renal): > 100 µM
- TGI (M14 melanoma): > 100 µM
- TGI (U251 CNS): > 100 µM
- TGI (COLO 205 colon): > 100 µM
- TGI (NCI-H226 lung): > 100 µM
- TGI (ACHN renal): > 100 µM
- TGI (UACC-62 melanoma): > 100 µM
- TGI (HT29 colon): > 100 µM
- TGI (HCC-2998 colon): > 100 µM
- TGI (MALME-3M melanoma): > 100 µM
- TGI (MOLT-4 leukemia): > 100 µM
- TGI (CCRF-CEM leukemia): > 100 µM

Structure (SMILES): CCN(CC)CCCC(C)Nc1cc(-c2ccccc2)nc2cc(OC)ccc12 (centres undefined)
- TGI (LXFL 529 NSCLC): 19.9 µM
- TGI (KM20L2 colon): 7.89 µM
- TGI (OVCAR-5 ovarian): 7.97 µM
- TGI (HOP-92 NSCLC): 11.1 µM
- TGI (SF-539 CNS): 17.7 µM
- TGI (M19-MEL melanoma): 27.5 µM
- TGI (NCI-H522 lung): 19.9 µM
- TGI (SF-268 CNS): 32.9 µM
- TGI (RPMI-8226 leukemia): 5.77 µM
- TGI (UO-31 renal): 9.22 µM
- TGI (A498 renal): 14 µM
- TGI (HOP-62 NSCLC): 19.4 µM
- TGI (OVCAR-3 ovarian): 34.5 µM
- TGI (SK-OV-3 ovarian): 37.5 µM
- TGI (SK-MEL-28 melanoma): 20.5 µM
- TGI (NCI-H23 lung): 32.1 µM
- TGI (SK-MEL-2 melanoma): 26.3 µM
- TGI (DMS 114 small cell lung): 21.8 µM
- TGI (IGROV1 ovarian): 41.9 µM
- TGI (K-562 leukemia): 5.7 µM
- TGI (SF-295 CNS): 21.1 µM
- TGI (NCI-H460 lung): 14.7 µM
- TGI (SNB-78 CNS): 18 µM
- TGI (SNB-75 CNS): 25.9 µM
- TGI (OVCAR-4 ovarian): 18.7 µM
- TGI (HL-60(TB) leukemia): 7.04 µM
- TGI (KM12 colon): 22.3 µM
- TGI (UACC-257 melanoma): 35.6 µM
- TGI (SR leukemia): 12.1 µM
- TGI (M14 melanoma): 3.52 µM
- TGI (U251 CNS): 15.8 µM
- TGI (COLO 205 colon): 13.4 µM
- TGI (ACHN renal): 29.8 µM
- TGI (UACC-62 melanoma): 36.6 µM
- TGI (HT29 colon): 4.83 µM
- TGI (HCC-2998 colon): 2.41 µM
- TGI (MALME-3M melanoma): 22.4 µM
- TGI (MOLT-4 leukemia): 8.24 µM
- TGI (CCRF-CEM leukemia): 11.4 µM
